The supplement of paper PMC3974653
Counter-ions that a name gives are not always drawn.

The compounds below were run on MTT (mouse pheochromocytoma) (assay: IC50 of cell viability (ATP content)). Details: (24 or 48 h).
Method in brief: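 After overnight culture at 37°C, 5% CO2 in white 1536-well plates, MTT mouse pheochromocytoma cells were given 23 nl of library compound in DMSO by pintool across 8 concentrations, spanning final 0.5 nM to 46 µM. Following 24 or 48 hrs, CellTiter-Glo luminescence was read after 15 minutes and normalised against positive-control (100%) and DMSO (0%) wells. A four-parameter logistic model provided the IC50.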

Row | Compound | IC50 of cell viability [µM]
1 | C\C(C)=C\[C@@H]1[C@@H](C(=O)OCN2C(=O)CN(CC#C)C2=O)C1(C)C [Imiprothrin] | > 46
2 | CC(C)Cn1cnc2c(N)nc3ccccc3c21 [Imiquimod] | > 46
3 | C[S+](=O)([O-])OCCC[NH2+]CCCO[S+](C)(=O)[O-] [Improsulfan tosylate] | > 46
4 | c1ccc2c(CCC3CC[NH2+]CC3)c[nH]c2c1 [Indalpine] | > 46
5 | CN[C@@H]1C[C@@H](c2ccc(Cl)c(Cl)c2)c2ccccc21.Cl [Indatraline hydrochloride] | > 46
6 | O=C1/C(=C2\Nc3ccc(S(=O)(=O)O)cc3C2=O)Nc2ccc(S(=O)(=O)O)cc21 [Indigo carmine] | > 46
7 | O=C1/C(=C2\Nc3ccc([S+](=O)([O-])O)cc3C2=O)Nc2ccc([S+](=O)([O-])O)cc21 [Indigo carmine] | > 46
8 | O=C1/C(=C2/Nc3ccc(S(=O)(=O)[O-])cc3C2=O)Nc2ccc(S(=O)(=O)[O-])cc21 [Indigo carmine] | > 46
9 | [Cl][In]([Cl])[Cl] [Indium trichloride] | > 46
10 | Cc1c(C)n(Cc2ccccc2)c2ccc(C(=O)OCCN(C)C)cc12 [Indocate] | > 46
11 | OCc1c[nH]c2ccccc12 [Indole-3-carbinol] | > 46
12 | COc1ccc2c(c1)c(CC(=O)O)c(C)n2C(=O)c1ccc(Cl)cc1 [Indometacin] | > 46
13 | COC(=O)C(CN)c1c[nH]c2ccc(OC)cc12 (configuration not stated) [Indorenate hydrochloride] | > 46
14 | CC(=O)N(C[C@@H](C)C(=O)O)c1c(I)cc(I)c(N)c1I [Iocetamic acid] | > 46
15 | O=C(CCCCC(=O)Nc1c(I)cc(I)c(C(=O)O)c1I)Nc1c(I)cc(I)c(C(=O)O)c1I [Iodipamide] | > 46
16 | CC(=O)N(CC(O)CN(C(C)=O)c1c(I)c(C(=O)NC[C@@H](O)CO)c(I)c(C(=O)NC[C@@H](O)CO)c1I)c1c(I)c(C(=O)NC[C@@H](O)CO)c(I)c(C(=O)NC[C@@H](O)CO)c1I [Iodixanol] | > 46
17 | Oc1c(I)cc(Cl)c2cccnc12 [Iodochlorohydroxyquinoline] | > 46
18 | IC(I)I [Iodoform] | > 46
19 | CC(C)NC(C)Cc1ccc(I)cc1.Cl (configuration not stated) [Iofetamine hydrochloride] | > 46

Row | Compound | IC50 of cell viability [µM]
20 | CC(=O)N(CC(O)CO)c1c(I)c(C(=O)NCC(O)CO)c(I)c(C(=O)NCC(O)CO)c1I (configuration not stated) [Iohexol] | > 46
21 | CN(C(=O)CO)c1c(I)c(C(=O)NCC(O)CO)c(I)c(C(=O)NCC(O)CO)c1I (configuration not stated) [Iomeprol] | > 46
22 | C[C@H](O)C(=O)Nc1c(I)c(C(=O)NC(CO)CO)c(I)c(C(=O)NC(CO)CO)c1I [Iopamidol] | > 46
23 | COCC(=O)Nc1c(I)c(C(=O)NC[C@@H](O)CO)c(I)c(C(=O)N(C)C[C@@H](O)CO)c1I [Iopromide] | > 46
24 | O=C(NC[C@@H](O)CO)c1c(I)c(C(=O)NC[C@@H](O)CO)c(I)c(N(CCO)C(=O)CO)c1I [Ioversol] | > 46
25 | CNC(=O)c1c(I)c(C(=O)NCC(=O)Nc2c(I)c(C(=O)O)c(I)c(C(=O)NCCO)c2I)c(I)c(N(C)C(C)=O)c1I [Ioxaglic acid] | > 46
26 | CC(=O)N(CC(O)CO)c1c(I)c(C(=O)NCCO)c(I)c(C(=O)NCC(O)CO)c1I (configuration not stated) [Ioxilan] | > 46
27 | CC(C)[N+]1(C)[C@@H]2CC[C@H]1CC(OC(=O)C(CO)c1ccccc1)C2 (some centres not stated) [Ipratropium bromide monohydrate] | > 46
28 | CC(C)Oc1ccc2c(=O)c(-c3ccccc3)coc2c1 [Ipriflavone] | > 46
29 | O=C1c2ccccc2[S+](=O)([O-])N1CCCCN1CCN(c2ncccn2)CC1 [Ipsapirone] | > 46
30 | O=C(O)CCCC/C=C(\c1ccccc1)c1cccnc1 [Isbogrel] | > 46
31 | CNC1C(O)C(OC2C(NC(=O)C(O)CN)CC(N)C(OC3OC(CN)C(O)C(O)C3O)C2O)OCC1(C)O (configuration not stated) [Isepamicin] | > 46
32 | CC(C)CCON=O [Isoamyl nitrite] | > 46
33 | CC(C)COC(=O)c1ccc(N)cc1 [Isobutamben] | > 46
34 | Cc1cc(C(=O)NNCc2ccccc2)no1 [Isocarboxazid] | > 46
35 | Clc1ccc([C@H](Cn2ccnc2)OCc2c(Cl)cccc2Cl)c(Cl)c1 [Isoconazole] | > 46
36 | CC[C@H](NC(C)C)[C@H](O)c1ccc(O)c(O)c1.C[S+](=O)([O-])O [Isoetharine mesylate salt] | > 46
37 | C/C=C/c1ccc(O)c(OC)c1 [Isoeugenol] | > 46
